Results reported in EP3318253B1, “COMPOSITIONS COMPRISING WNT INHIBITORS FOR TREATING CANCER” (Schmidt-Wolf, Ingo, priority 2010, dated 2012).
Read-outs that look alike come from different tables or passages of the source.

Assays:
[1] = tested on: Wnt/β-catenin target genes, including LEF-1, cyclin D1 and fibronectin; conditions: CLL cells exposed to EA; cited from earlier work
MPC11 myeloma cells = conditions: 750 µg lenalidomide/day
Method: All animal experiments were done at least in duplicate with groups of 6 BALB/c mice (Charles River, Sulzfeld, Germany). 5x10^5 MCP11 murine myeloma cells were injected per mouse subcutaneously into Balb/c mice. […] Overall survival and tumor growth were measured. Tumor volume was calculated as follows: volume = length x width^2 x 0,52. Animals were killed when tumor volume reached 2000 mm^3.
• Figure 1. […] 1x10^5 cells were cultured with different compounds for three days. The concentration of thalidomide was U266 160µM for U266, RPMI 20µM for RPMI, and OPM 40µM for OPM cells. Then cell viability was measured by DIOC6 staining in flow cytometry. Results represent data from three, two and five separate experiments, respectively. Separate U266 n=3, RPMI n=2, OPM n=5 experiments. Data are shown as mean ± SD. • Figure 2. […] 1x10^5 OPM cells were cultured with the different compounds for three days. The concentration of lenalidomide was 12µM for OPM and 80µM for RPMI cells. Then cell viability was measured by DIOC6 staining in flow cytometry. Results represent data from eight and five OPM n=8, RPMI n=5 separate experiments, respectively. Data are shown as mean ± SD. • Figure 3. […] (A) Flow cytometric results. […] Western Blot analysis for the detection of β-catenin in myeloma cell lines under normal conditions. The myeloma cell lines RPMI 8226, KMS-18 and U266 were analyzed according to their β-catenin expression. • Figure 4B. […] As primary antibodies purified mouse anti-β-catenin and β-actin were used at a dilution of 1:1000 and as secondary antibody served goat anti-mouse IgG-HRP at a dilution of 1:5000. Finally, ECL reagent was utilized for detection. • Figure 4C. […] As primary antibodies Purified mouse anti-β-catenin and β-actin were used at a dilution of 1:1000 and as secondary antibody served goat anti-mouse IgG-HRP at a dilution of 1:5000. Finally, ECL reagent was utilized for detection. • Figure 5. […] Results represent data from two separate experiments. Data are shown as mean. • Figure 6. […] BALB/c mice were injected with 5x10^5 MPC11 myeloma cells subcutaneously. (A) Tumor growth and (B) overall survival were measured. Six animals were assayed per group.
All animal experiments were done at least in duplicate with groups of 6 BALB/c mice (Charles River, Sulzfeld, Germany). 5x10^5 MCP11 murine myeloma cells were injected per mouse subcutaneously into Balb/c mice. Mice were treated orally with 450µg/day CIC and 750 µg lenalidomide/day, respectively. Overall survival and tumor growth were measured. Tumor volume was calculated as follows: volume = length x width^2 x 0,52. Animals were killed when tumor volume reached 2000 mm^3.
• Figure 7. […] 1x10^5 cells were cultured with different compounds for three days. The concentration of thalidomide was U266 160µM for U266, RPMI 20µM for RPMI, and OPM 40µM for OPM cells. Then cell viability was measured by DIOC6 staining in flow cytometry. Results represent data from three, two and five separate experiments, respectively. Separate U266 n=3, RPMI n=2, OPM n=5 experiments. Data are shown as mean ± SD. • Figure 8. […] 1x10^5 OPM cells were cultured with the different compounds for three days. The concentration of lenalidomide was 12µM for OPM and 80µM for RPMI cells. Then cell viability was measured by DIOC6 staining in flow cytometry. Results represent data from eight and five OPM n=8, RPMI n=5 separate experiments, respectively. Data are shown as mean ± SD. • Figure 9. […] (A) Flow cytometric results. (B) We analyzed the effect of CIC on the Wnt/beta catenin pathway by Western blot. • Figure 10A. Western Blot analysis for the detection of β-catenin in myeloma cell lines under normal conditions. The myeloma cell lines RPMI 8226, KMS-18 and U266 were analyzed according to their β-catenin expression. • Figure 10B.

LEF-1 protein = LEF-1 protein (Homo sapiens, UniProt Q9UJU2); conditions: immune co-precipitation; destabilizes the LEF-1/β-catenin complex; cited from earlier work
[2] = Cell viability by DiOC6 staining, flow cytometry (normal control cells); format: cell-based, human; conditions: human; control of PBMC; after 72 h; read-out: relative viability
Method: PBMCs were isolated from blood of healthy donors by Ficoll-Hypaque density gradient centrifugation. Blood from buffy coats was mixed 1:2 with PBS/1% BSA (both PAA, Cölbe, Germany) and used for a ficoll gradient (LymphoPrep, PAA, Cölbe, Germany). After the centrifugation at 800 g for 30 minutes, the leukocyte layer was removed and transferred to new tubes. Subsequently, these cells were washed 3 times with PBS/1%BSA and re-suspended in fresh medium, consisting of RPMI medium (PAA, Cölbe, Germany) with 10% fetal calf serum (Invitrogen, Karlsruhe, Germany), 2.5% hepes buffer solution (PAA, Cölbe, Germany), and 1% penicillin/streptomycin (PAA, Cölbe, Germany).
Experiments were performed as reported recently.

LEF-1 protein, sequence (Q9UJU2 whole entry): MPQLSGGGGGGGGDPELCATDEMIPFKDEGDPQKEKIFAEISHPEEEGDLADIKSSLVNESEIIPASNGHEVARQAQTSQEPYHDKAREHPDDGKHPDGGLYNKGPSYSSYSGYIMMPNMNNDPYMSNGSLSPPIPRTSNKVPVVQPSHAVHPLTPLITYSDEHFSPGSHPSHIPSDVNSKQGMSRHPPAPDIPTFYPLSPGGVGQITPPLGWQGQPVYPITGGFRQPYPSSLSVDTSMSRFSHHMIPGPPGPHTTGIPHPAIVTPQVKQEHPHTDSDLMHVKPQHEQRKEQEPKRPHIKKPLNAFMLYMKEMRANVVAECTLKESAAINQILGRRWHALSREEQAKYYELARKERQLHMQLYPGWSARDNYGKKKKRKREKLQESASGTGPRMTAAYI

Structure (SMILES) | expression of Wnt/β-catenin target genes [1] | Tumor growth (MPC11 myeloma cells; oral 450µg/day EA, compared to mice treated with lenalidomide alone, p<0.001) | binding to LEF-1 protein (LEF-1 protein) | viability at 72 h, 30 µM [2] [%] | Tumor growth (MPC11 myeloma cells; oral 450µg/day CIC, compared to control mice)
C=C(CC)C(=O)c1ccc(OCC(=O)O)c(Cl)c1Cl [EA, 2-[2,3-dichloro-4-(2-methylidenebutanoyl)phenoxy] acetic acid] | decreased | significantly reduced | directly bind | 89.5 ± 3.1 | 
Cc1cc(C2CCCCC2)n(O)c(=O)c1 [CIC, ciclopirox olamine] |  |  |  |  | significantly reduced
